Results on 3 molecules are retold here after patent US20060270708A1, “Novel process for preparation of isotonic aqueous injection of ropivacaine” (Navinta LLC, priority 2005, published 2006).

For data set [1] the following is noted: reported in U.S. Pat. No. 4,870,086; cited from earlier work.
The nature of data set [2]: Content of ropivacaine base dissolved in the filtered solution, by HPLC against a control solution. It counts as physicochemical. As to conditions: equimolar or less concentrated hydrochloric acid, even at about 60° C. The method, then: Each resulting solution was warmed to about 50° C. and then cooled to room temperature with stirring for about 30 min., after which was added a suitable quantity of sodium chloride, and the total volume of each was made up to 25 mL. Osmolality of the filtered solution was determined using conventional freezing point osmometer. The pH of these solutions were in the range 3.2 to 3.5. The content of ropivacaine base dissolved in the solution was determined by HPLC against a control solution prepared by dissolving the same base in excess of hydrochloric acid.
Each resulting solution was warmed to about 50° C. with stirring for about 30 min., then cooled to room temperature, after which was added a suitable quantity of sodium chloride. The pH was then adjusted to 5.0 using sodium hydroxide solution, and then the volume was made up to 25 mL. The osmolality of the filtered solution was determined using conventional freezing point osmometer. The content of ropivacaine base dissolved in the solution was determined by HPLC against a control solution prepared by dissolving the same base in excess of hydrochloric acid.

Data set [3] can be described thus: Hygroscopicity and stability of ropivacaine base and its salts. The format is physicochemical.
The conditions of data set [4]: optically pure form compared to the racemic mixture of bupivacaine; cited from earlier work.
For data set [5] the following is noted: racemate compared with either D or L isomer alone, U.S. Pat. No. 4,695,576; cited from earlier work.

Each structure is given as a SMILES string.

Consider `CCCN1CCCC[C@H]1C(=O)Nc1c(C)cccc1C.Cl` [(L) N-n-propylpipecolic acid-2,6-xylidide hydrochloride], for which, in data set [1], the hygroscopicity / stability result is “hygroscopic and thus not stable”.
On to `CCCN1CCCC[C@H]1C(=O)Nc1c(C)cccc1C` [ropivacaine base, (L) N-n-propylpipecolic acid-2,6-xylidide], for which, in data set [2], the “dissolution in aqueous media” value was “did not yield a completely homogeneous solution”. In addition, in data set [3], the hygroscopicity result is reported as “not hygroscopic” and the “stability compared with its hydrochloride or hydrochloride monohydrate salts” value is reported as “much more stable”. Moreover, in data set [4], the cardio-toxic potential entry was “reduced cardio-toxic potential”.
`CCCCN1CCCCC1C(=O)Nc1c(C)cccc1C` (racemic) [bupivacaine, racemic N-n-butylpipecolic acid-2,6-xylidide]: in data set [5], the analgesic effects entry is “better analgesic effects”.
